Data: ChEMBL document CHEMBL4011637, “Synthesis of 8-Substituted Analogues of Cyclic ADP-4-Thioribose and Their Unexpected Identification as Ca2+-Mobilizing Full Agonists” (J Med Chem, 2017)
Active and inactive are the calls of the source. The rule behind the calls is not given here.

Tests used:
[1] = target: Ryanodine receptor (Hemicentrotus pulcherrimus) (UniProt Q8TA74); experiment: Antagonist activity at ryanodine receptor in Hemicentrotus pulcherrimus egg homogenate assessed as decrease in intracellular calcium mobilization by Fluo-3 dye based fluorimetric assay; type: cell-based
Ryanodine receptor = Ryanodine receptor (Hemicentrotus pulcherrimus, UniProt Q8TA74); experiment: (§1) Agonist activity at ryanodine receptor in Hemicentrotus pulcherrimus egg homogenate assessed as increase in intracellular calcium mobilization by Fluo-3 dye based fluorimetric assay; type: cell-based
[2] = target: Ryanodine receptor (Hemicentrotus pulcherrimus) (UniProt Q8TA74); experiment: as §1; type: cell-based
[3] = Dissociation constant, pKa of the compound; type: physicochemical
Homo sapiens [4] = species: Homo sapiens; experiment: Agonist activity at ryanodine receptor (unknown origin) in neuronal cells assessed as increase in intracellular calcium mobilization by Fluo-3 dye based fluorimetric assay; type: cell-based
Homo sapiens [5] = species: Homo sapiens; experiment: Agonist activity at ryanodine receptor (unknown origin) in T cells assessed as increase in intracellular calcium mobilization by Fluo-3 dye based fluorimetric assay; type: cell-based

Structure (SMILES)	inhibition [1]	EC50 (Ryanodine receptor) [nM]	Activity [2]	pKa [3]	Activity (Homo sapiens [4])	Activity (Homo sapiens [5])
Nc1c2nc(Cl)n3c2nc[n+]1[C@@H]1S[C@H](COP(=O)([O-])OP(=O)(O)OC[C@H]2O[C@@H]3[C@H](O)[C@@H]2O)[C@@H](O)[C@H]1O	inactive	12000				
Nc1nc2c(N)[n+]3cnc2n1[C@@H]1O[C@H](COP(=O)(O)OP(=O)([O-])OC[C@H]2S[C@@H]3[C@H](O)[C@@H]2O)[C@@H](O)[C@H]1O	inactive	870				
[N-]=[N+]=Nc1nc2c(N)[n+]3cnc2n1[C@@H]1O[C@H](COP(=O)(O)OP(=O)([O-])OC[C@H]2C[C@@H]3[C@H](O)[C@@H]2O)[C@@H](O)[C@H]1O			Active			
Nc1c2ncn3c2nc[n+]1[C@@H]1S[C@H](COP(=O)([O-])OP(=O)(O)OC[C@H]2O[C@@H]3[C@H](O)[C@@H]2O)[C@@H](O)[C@H]1O		39		8	Active	Active
Nc1nc2c(N)[n+]3cnc2n1[C@@H]1O[C@H](COP(=O)([O-])OP(=O)(O)OC[C@H]2C[C@@H]3[C@H](O)[C@@H]2O)[C@@H](O)[C@H]1O			Active			
[N-]=[N+]=Nc1nc2c(N)[n+]3cnc2n1[C@@H]1O[C@H](COP(=O)(O)OP(=O)([O-])OC[C@H]2S[C@@H]3[C@H](O)[C@@H]2O)[C@@H](O)[C@H]1O		37000				
Nc1c2nc(Cl)n3c2nc[n+]1[C@@H]1C[C@H](COP(=O)(O)OP(=O)([O-])OC[C@H]2O[C@@H]3[C@H](O)[C@@H]2O)[C@@H](O)[C@H]1O			Active			
Nc1c2ncn3c2nc[n+]1[C@@H]1C[C@H](COP(=O)([O-])OP(=O)(O)OC[C@H]2O[C@@H]3[C@H](O)[C@@H]2O)[C@@H](O)[C@H]1O				9	Active	inactive
Nc1c2ncn3c2nc[n+]1[C@@H]1O[C@H](COP(=O)([O-])OP(=O)(O)OC[C@H]2O[C@@H]3[C@H](O)[C@@H]2O)[C@@H](O)[C@H]1O		210	Dose-dependent effect	8.3		Active
